According to the supplement of paper PMC5908809:

Legend:
Assay in all cases: relative IC50 (inflection point of fitted viability curve, relative to fitted max inhibition); higher = less sensitive
Conditions in all cases: 72 h
[1] = tested on: normal primary NK cells, pool 2 (3 donors) (IL-2 2.5 ng/mL)
Description: (§1)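 Drug sensitivity and resistance testing: 5 concentrations over a 10,000-fold range, 72 h at 37 °C, viability by CellTiter-Glo normalised to DMSO and benzethonium chloride controls. IC50 is the inflection point of a logistic fit (min fixed at 0, max fitted), so it is relative to the fitted maximal inhibition. Kept only where fitted max inhibition is at least 50%.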

[2] = tested on: NK-YS (IL-2 2.5 ng/mL)
Description: as §1

[3] = tested on: YT (IL-2 2.5 ng/mL)
Description: as §1

[4] = tested on: SNK-6 (IL-2 2.5 ng/mL)
Description: as §1

[5] = tested on: IMC-1 (IL-2 20 ng/mL)
Description: as §1

[6] = tested on: NK-92 (IL-2 2.5 ng/mL)
Description: as §1

[7] = tested on: KAI3 (IL-2 2.5 ng/mL)
Description: as §1

[8] = tested on: KHYG-1 (IL-2 2.5 ng/mL)
Description: as §1

[9] = tested on: NKL (IL-2 2.5 ng/mL)
Description: as §1

[10] = tested on: DERL-7 (IL-2 2.5 ng/mL)
Description: as §1

[11] = tested on: normal primary NK cells, pool 1 (3 donors), resting (IL-2 0 ng/mL)
Description: as §1

[12] = tested on: normal primary NK cells, pool 3 (3 donors) (IL-2 2.5 ng/mL)
Description: as §1

[13] = tested on: normal primary NK cells, pool 1 (3 donors) (IL-2 2.5 ng/mL)
Description: as §1

| SMILES | relative IC50 [1] | relative IC50 [2] | relative IC50 [3] | relative IC50 [4] | relative IC50 [5] | relative IC50 [6] | relative IC50 [7] | relative IC50 [8] | relative IC50 [9] | relative IC50 [10] | relative IC50 [11] | relative IC50 [12] | relative IC50 [13] |
| --- | --- | --- | --- | --- | --- | --- | --- | --- | --- | --- | --- | --- | --- |
| Cn1c(=O)n(-c2ccc(C(C)(C)C#N)cc2)c2c3cc(-c4cnc5ccccc5c4)ccc3ncc21 [Dactolisib] | 0.0318 µM | 0.0261 µM | 0.0409 µM | 0.0405 µM | 0.198 µM | 0.015 µM | 0.0173 µM | 0.048 µM | 0.0104 µM | 0.00968 µM |  |  |  |
| O=C(CCCCCCNC(=O)c1cnc(N(c2ccccc2)c2ccccc2)nc1)NO [Rocilinostat] | 1.55 µM | 1.62 µM | 1.81 µM | 1.35 µM | 2.49 µM | 1.21 µM | 0.823 µM | 1.05 µM | 0.814 µM | 1.99 µM | 0.485 µM | 2.47 µM | 1.1 µM |
| CC(C)(C)c1nc(-c2cccc(NS(=O)(=O)c3c(F)cccc3F)c2F)c(-c2ccnc(N)n2)s1 [Dabrafenib] | > 2.5 µM |  |  |  |  | > 2.5 µM |  | 0.0721 µM | > 2.5 µM |  |  | > 2.5 µM |  |
| CC(C)n1cnc2c(NCCc3ccc(O)cc3)nc(-c3csc4ccccc34)nc21 [StemRegenin 1] | 3.42 µM |  | 2.53 µM | 3.86 µM |  | 1.18 µM | 3.18 µM | 2.45 µM | 1.62 µM | 0.112 µM | 1.9 µM |  |  |
| Cc1c(CN2CCN(C(=O)[C@H](C)O)CC2)sc2c(N3CCOCC3)nc(-c3cnc(N)nc3)nc12 [Apitolisib] | 1.32 µM | 0.599 µM | 0.622 µM |  |  | 0.145 µM | 0.457 µM | 1.6 µM | 0.492 µM | 0.204 µM |  | 2.31 µM | 0.902 µM |
| O=P1(NCCCl)OCCCN1CCCl (configuration not stated) [Ifosfamide] | > 10 µM |  | > 10 µM |  | > 10 µM | > 10 µM | > 10 µM | > 10 µM | > 10 µM | > 10 µM |  | > 10 µM |  |
| CNC(=O)c1ccccc1Sc1ccc2c(/C=C/c3ccccn3)n[nH]c2c1 [Axitinib] |  | 1.1 µM | 1.2 µM | 0.707 µM | 2.76 µM | 1.5 µM | 0.717 µM | 0.916 µM | 0.734 µM | 0.323 µM |  |  |  |
| O=C(O)CC[C@H]1CC[C@@](c2cc(F)ccc2F)(S(=O)(=O)c2ccc(Cl)cc2)CC1 [MK-0752] | > 1 µM |  |  |  |  |  |  |  |  |  | > 1 µM |  |  |
| CN[C@@H](C)C(=O)N[C@H](C(=O)N1CCC[C@H]1c1nc(C(=O)c2ccc(F)cc2)cs1)C1CCCCC1 [LCL161] | 0.772 µM |  |  |  |  | 2.9 µM | 2.94 µM | 0.251 µM |  | 1.39 µM | 2.52 µM | 0.932 µM | 1.04 µM |
| Cc1cc(Nc2nc(N[C@@H](C)c3ncc(F)cn3)ncc2Cl)[nH]n1 [AZD1480] | 0.0806 µM | 0.0781 µM | 0.197 µM | 0.0731 µM | 0.331 µM | 0.126 µM | 0.0208 µM | 0.0261 µM | 0.0233 µM | 0.0505 µM |  | 0.123 µM | 0.0755 µM |
| CC[C@H](CC#N)OC(=O)N[C@@H](C)c1cccc(NC(=O)Nc2ccc(-c3cnco3)c(OC)c2)c1 [AVN944] |  | 0.103 µM | 0.138 µM | 0.0677 µM | 0.622 µM | 0.166 µM | 0.117 µM | 0.103 µM | 0.117 µM | 0.104 µM | 2.17 µM |  |  |
| Cc1ccc(-n2nc(C(C)(C)C)cc2NC(=O)Nc2ccc(OCCN3CCOCC3)c3ccccc23)cc1 [Doramapimod] | 3.23 µM | 1.3 µM |  |  |  | 1.91 µM | 0.362 µM | 2.14 µM | 0.37 µM |  | 2.92 µM | 2.98 µM | 3.69 µM |
| CC[C@H](C)C(=O)O[C@H]1C[C@@H](C)C=C2C=C[C@H](C)[C@H](CC[C@@H]3C[C@@H](O)CC(=O)O3)[C@H]21 [Lovastatin] | > 10 µM | 1.94 µM |  |  |  |  |  |  | 3.52 µM |  |  | > 10 µM |  |
| NS(=O)(=O)OC[C@@H]1C[C@@H](n2ccc3c(N[C@H]4CCc5ccccc54)ncnc32)C[C@@H]1O [Pevonedistat] | 0.449 µM | 0.507 µM | 0.0551 µM | 0.0397 µM | 0.107 µM | 0.633 µM | 0.0487 µM | 0.069 µM | 0.448 µM | 0.43 µM |  | 0.335 µM | 0.156 µM |
| N#CCNC(=O)c1ccc(-c2ccnc(Nc3ccc(N4CCOCC4)cc3)n2)cc1 [Momelotinib] | 0.81 µM | 0.796 µM | 1.14 µM | 0.891 µM | 1.8 µM | 0.346 µM | 0.205 µM | 0.173 µM | 0.178 µM | 0.394 µM |  | 1 µM | 0.177 µM |
| O=C(CCCCCCC(=O)Nc1ccc([C@H]2O[C@@H](CSc3nc(-c4ccccc4)c(-c4ccccc4)o3)C[C@@H](c3ccc(CO)cc3)O2)cc1)NO [Tubacin] |  | 2.83 µM | 2.63 µM | 1.8 µM | 2.65 µM | 1.66 µM | 2.07 µM | 3.09 µM | 1.33 µM | 1.62 µM | 3.8 µM |  |  |
| C=CCn1c(=O)c2cnc(Nc3ccc(N4CCN(C)CC4)cc3)nc2n1-c1cccc(C(C)(C)O)n1 [MK1775] |  | 0.227 µM | 0.19 µM | 0.156 µM | 0.361 µM | 0.0938 µM | 0.0957 µM | 0.0593 µM | 0.0572 µM | 0.185 µM |  |  |  |
| CS(=O)(=O)N1CCN(Cc2cc3nc(-c4cccc5[nH]ncc45)nc(N4CCOCC4)c3s2)CC1 [Pictilisib] | 1.95 µM | 1.18 µM | 1.26 µM |  | > 10 µM | 0.421 µM | 1.49 µM | 2.01 µM | 0.821 µM | 0.472 µM | 0.694 µM |  | 1.12 µM |
| CO[C@H]1C[C@@H]2CC[C@@H](C)[C@@](O)(O2)C(=O)C(=O)N2CCCC[C@H]2C(=O)O[C@H]([C@H](C)C[C@@H]2CC[C@@H](OCCO)[C@H](OC)C2)CC(=O)[C@H](C)/C=C(\C)[C@@H](O)[C@@H](OC)C(=O)[C@H](C)C[C@H](C)/C=C/C=C/C=C/1C [Everolimus] |  |  |  |  | > 0.1 µM |  |  |  |  | 0.00094 µM |  | > 0.1 µM |  |
| O=C1NC(=O)[C@@H](c2cn3c4c(cccc24)CCC3)[C@@H]1c1c[nH]c2ccccc12 [Tivantinib] |  | 0.119 µM | 0.238 µM | 0.0508 µM | 0.31 µM | 0.115 µM | 0.167 µM | 0.221 µM | 0.37 µM | 0.347 µM |  |  |  |
| Cn1c(Nc2ccc(C(F)(F)F)cc2)nc2cc(Oc3ccnc(-c4ncc(C(F)(F)F)[nH]4)c3)ccc21 [RAF265] |  |  |  |  |  | 0.175 µM |  |  |  |  | 0.0474 µM |  |  |
| O=C(CCCCCCC(=O)Nc1ccccc1)NO [Vorinostat] | 1.1 µM | 1.17 µM | 1.47 µM | 0.713 µM | 2.29 µM | 0.467 µM |  | 0.531 µM | 0.384 µM | 0.69 µM | 0.394 µM | 1.98 µM | 0.376 µM |
| CC/C(=C(\c1ccc(O)cc1)c1ccc(OCCN(C)C)cc1)c1ccccc1 [4-hydroxytamoxifen] | 2.7 µM | 2.25 µM | 2.33 µM | 3.89 µM | 2.13 µM | 2.85 µM | 2.64 µM | 1.29 µM | 2.7 µM | 1.69 µM | 3.75 µM |  | 3.34 µM |
